Values of other authors as cited in patent US20160228384A1, “EMULSION CONTAINING TWO OILS AND STABILIZERS” (NANOMEDEX, LLC, priority 2015, published 2016).

Columns and labels:
[1] = not given; remark: listed apart in the source

| Compound | Log P | Solubility in Water [1] | Water Solubility in Solvent [1] |
| --- | --- | --- | --- |
| CCCCOC(C)=O [Butyl acetate] | 1.8 | 0.64 wt % | 0.98 wt % |
| CCCC(=O)OCC [Ethyl butyrate] | 1.7 | 0.69 wt % | 0.79 wt % |
| CCCCCCOC(C)=O [Hexyl acetate] | 2.4 | 0.043 wt % | 0.566 wt % |
| CCCCCCCCOC(C)=O [Octyl acetate] | 3.4 | 0.018 wt % | 0.02 wt % |

Continued, values first:

| Log P | Solubility in Water [1] | Water Solubility in Solvent [1] | Compound |
| --- | --- | --- | --- |
| 2.4 | 0.083 wt % | 0.47 wt % | CCCCCC(=O)OCC [Ethyl hexanoate] |
| 3.5 | 0.051 wt % | 0.90 wt % | CCCCCCCC(=O)OCC [Ethyl octanoate] |
